pEC50: −log10 of the molar value. Read-outs that look alike come from different tables or passages of the source.
Experiments:
Format in all cases: cell-based
[1] = tested on: SUCNR1; assay: Active/inactive grouping by EC50 threshold (ALiBERO training set, Table S1); conditions: active (1) / inactive (0), EC50 threshold of 10 µM
Text: In brief, starting from the homology model supported by mutagenesis data[4], ALiBERO introduced receptor flexibility via Normal Mode Analysis and Monte Carlo sampling, to generate a small subset of receptor models (pockets). […] For a list of all compounds used in the optimisation protocol, see Table S1. Receptor structures were then chosen based on their ability to discriminate actives from inactives in a retrospective virtual screening using the docking protocol and scoring function in ICM (Molsoft L.L.C., San Diego, CA, USA)[20], as measured by the normalised square root area under the curve (NSQ_AUC). […] The ALiBERO-optimised receptor ensemble was subsequently validated in a virtual ligand screening using an external test set with a higher active:decoy ratio (~1:50).
ALiBERO is an iterative sampling-selection protocol for receptor optimisation that relies on the use of ligand information for selecting the best-performing receptor conformations. Homology models of the mouse SUCNR1 receptor were constructed according to Trauelsen et al.[4] and loaded into ICM (Molsoft L.L.C., San Diego, CA, USA). The structure was converted into an ICM object, thereby assigning protein atom types, optimising hydrogens and His, Pro, Asn, […] and Cys side-chain conformations. […] For a list of all compounds used in the optimisation protocol, see Table S1. ALiBERO was performed using the prepared receptor structure and ligand training set as input. Binding site residues were manually selected based on proximity to the position of MRS2500 in the superimposed structure of the P2Y1 receptor (PDB 4XNW). 100 elastic network normal mode analysis derived conformers were built in order to recreate backbone and side-chain flexibility (T = 300 K). Next, a flexible-ligand static-receptor small-scale virtual screening was performed on each of the receptor conformers, from which several pockets were selected for the following generation. The ligand and decoy molecules were docked into mSUCNR1, represented as pre-calculated potential grids and then sorted according to their ICM VLS scores. The maximum number of complementary pockets for each generation was set to 5 with a maximum of 10 generations. Receptor models were selected based on their combined screening performance, as determined by the normalised square root area under the curve, NSQ_AUC. After each round of virtual screening, an all-atom Monte Carlo side-chain refinement was performed to account for induced-by-ligand changes. NSQ_AUC values were calculated according to Katritch et al.[16].

[2] = molecular target: T1, mSUCNR1 (Mus musculus, UniProt Q99MT6); assay: IP3 turnover assay in mSUCNR1 transfected HEK-293 cells; conditions: for mSUCNR1 pEC50 / EC50: dose-response curves of induction of IP3 turnover in SUCNR1 transfected HEK cells (N = 3); for mSUCNR1 efficacy, %: efficacy relative to succinate (100%), HEK cells (N = 3); for mSUCNR1 efficacy, % / mSUCNR1 % @10^−4M: IP3 turnover; for mSUCNR1 % @10^−4M: relative to succinate (100%); for EC50: read-out: mSUCNR1 pEC50 (converted)
T1 construct: FLAG (own knowledge: pCMV-Tag 2B is an N-terminal FLAG vector); host or cells: HEK-293, transient transfection with Lipofectamine-2000
T1 sequence (Q99MT6 1-317): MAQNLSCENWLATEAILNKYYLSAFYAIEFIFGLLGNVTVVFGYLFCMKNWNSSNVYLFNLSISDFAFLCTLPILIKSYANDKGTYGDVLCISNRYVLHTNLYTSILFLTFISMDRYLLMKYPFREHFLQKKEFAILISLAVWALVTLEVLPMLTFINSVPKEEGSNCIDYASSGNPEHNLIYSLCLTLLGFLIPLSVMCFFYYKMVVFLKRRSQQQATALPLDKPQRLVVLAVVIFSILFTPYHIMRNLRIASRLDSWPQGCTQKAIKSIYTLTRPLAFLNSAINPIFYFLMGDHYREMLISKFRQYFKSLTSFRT
Method: (§1) Receptor constructs for mSUCNR1 and hSUCNR1 were bought from Origene and cloned into the eukaryotic expression vector pCMV-Tag(2B) (Stratagene).
(§2) Transient transfection of the HEK-293 cells was done with Lipofectamine-2000 according to manufacturer’s protocol. Cells were supplemented with fresh medium after 5 h.
(§3) 96-well plates were coated with poly-D-lysine and HEK-293 cells were plated (35.000 cells/well). Cells were transfected for 5 h the following day and subsequently incubated O/N with 0.5 μCi/mL myo[3H]inositol (Perkin Elmer) in 100 μL growth medium. On day 3 cells were washed with 200 µL HBSS/well (Gibco, Life Technologies) followed by a pre-incubation (30 min, 37 °C) with 100 µL HBSS supplemented with 10 mM LiCl. Cells were stimulated with ligand (120 min, 37 °C) and lysed with 50 µL 10 mM formic acid (30 min on ice). In a white 96 well plate 20 µL cell extracts and 80 µL 1:8 diluted YSi scintillation beads (Perkin Elmer) were mixed. The plate was spun down, and a Packard Top Count NXT counter recorded light emission (scintillation) after an 8 h delay.

[3] = molecular target: T2, hSUCNR1 (Homo sapiens, UniProt Q9BXA5); assay: IP3 turnover assay in hSUCNR1 transfected HEK-293 cells; conditions: for hSUCNR1 pEC50 / EC50: dose-response curves of induction of IP3 turnover in SUCNR1 transfected HEK cells (N = 3); for hSUCNR1 efficacy, %: efficacy relative to succinate (100%), HEK cells (N = 3); for hSUCNR1 efficacy, % / hSUCNR1 % @10^−4M: IP3 turnover; for hSUCNR1 % @10^−4M: relative to succinate (100%); for EC50: read-out: hSUCNR1 pEC50 (converted)
T2 construct: FLAG (own knowledge: pCMV-Tag 2B is an N-terminal FLAG vector); host or cells: HEK-293, transient transfection with Lipofectamine-2000
T2 sequence (Q9BXA5 1-334): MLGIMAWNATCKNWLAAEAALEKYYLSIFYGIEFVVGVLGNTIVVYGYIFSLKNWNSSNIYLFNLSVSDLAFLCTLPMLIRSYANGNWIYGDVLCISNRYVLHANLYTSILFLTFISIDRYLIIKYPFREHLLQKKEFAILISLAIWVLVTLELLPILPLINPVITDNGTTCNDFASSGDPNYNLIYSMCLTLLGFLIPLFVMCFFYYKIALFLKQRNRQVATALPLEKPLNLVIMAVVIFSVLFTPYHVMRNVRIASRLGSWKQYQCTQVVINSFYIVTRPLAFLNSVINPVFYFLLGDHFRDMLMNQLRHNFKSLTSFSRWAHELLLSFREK
Method: as §1, §2, §3

[4] = relative to the 4-methoxy compound 17

| SMILES | Active [1] | mSUCNR1 efficacy, % [2] | hSUCNR1 efficacy, % [3] | pEC50 [2] | pEC50 [3] | further results |
| --- | --- | --- | --- | --- | --- | --- |
| O=C(O)C[C@H](NC(=O)c1ccc(Br)o1)C(=O)O [Compound 4, (5-Bromofuran-2-carbonyl)-L-aspartic acid] | 0 (inactive (0)) | 95.8 ± 2.9% | 78.1 ± 7.5% |  |  | mSUCNR1 pEC50 [2]: 4.93 ± 0.05; hSUCNR1 pEC50 [3]: 4.53 ± 0.13 |
| O=C(O)C[C@H](NC(=O)c1ccccc1Cl)C(=O)O [Compound 5, (2-Chlorobenzoyl)-L-aspartic acid] | 0 (inactive (0)) |  |  |  |  | mSUCNR1 % @10^−4M [2]: 13% @10^−4M; hSUCNR1 % @10^−4M [3]: 22% @10^−4M |
| O=C(O)C[C@H](NC(=O)c1cccc(I)c1)C(=O)O [Compound 6, (3-Iodobenzoyl)-L-aspartic acid] | 0 (inactive (0)) |  |  |  |  | mSUCNR1 % @10^−4M [2]: 64% @10^−4M; hSUCNR1 % @10^−4M [3]: 50% @10^−4M |
| O=C(O)C[C@H](NC(=O)c1ccc(Br)cc1)C(=O)O [Compound 7, (4-Bromobenzoyl)-L-aspartic acid] | 0 (inactive (0)) |  |  |  |  | mSUCNR1 % @10^−4M [2]: 15% @10^−4M; hSUCNR1 % @10^−4M [3]: 8% @10^−4M |
| O=C(O)C[C@H](NC(=O)Cc1ccc(Br)cc1)C(=O)O [Compound 8, (2-(4-Bromophenyl)acetyl)-L-aspartic acid] | 0 (inactive (0)) |  |  |  |  | mSUCNR1 % @10^−4M [2]: 11% @10^−4M; hSUCNR1 % @10^−4M [3]: 5% @10^−4M |
| O=C(O)C[C@H](NC(=O)Cc1ccc(-c2ccc(F)cc2)cc1)C(=O)O [Compound 9, (2-(4′-Fluoro-[1,1′-biphenyl]-4-yl)acetyl)-L-aspartic acid] | 0 (inactive (0)) |  |  |  |  | mSUCNR1 % @10^−4M [2]: 15% @10^−4M; hSUCNR1 % @10^−4M [3]: 25% @10^−4M |
| O=C(O)C[C@H](NC(=O)c1ccc(-c2ccccc2)o1)C(=O)O [Compound 10, (5-Phenylfuran-2-carbonyl)-L-aspartic acid] | 1 (active (1)) | 81.3 ± 3.6% | 81.6 ± 8.4% | 6.16 | 5.29 |  |
| Cc1ccccc1-c1ccc(C(=O)N[C@@H](CC(=O)O)C(=O)O)o1 [Compound 11, (5-(o-Tolyl)furan-2-carbonyl)-L-aspartic acid] | 1 (active (1)) | 76.7 ± 3.1% | 94.7 ± 8.7% | 6.13 | 5.27 |  |
| Cc1cccc(-c2ccc(C(=O)N[C@@H](CC(=O)O)C(=O)O)o2)c1 [Compound 12, (5-(m-Tolyl)furan-2-carbonyl)-L-aspartic acid] | 1 (active (1)) | 81.6 ± 3.0% | 91.9 ± 5.3% | 6.07 | 5.02 |  |
| Cc1ccc(-c2ccc(C(=O)N[C@@H](CC(=O)O)C(=O)O)o2)cc1 [Compound 13, (5-(p-Tolyl)furan-2-carbonyl)-L-aspartic acid] | 1 (active (1)) | 73.2 ± 2.7% | 69.1 ± 3.9% |  |  | mSUCNR1 pEC50 [2]: 6.83 ± 0.11; hSUCNR1 pEC50 [3]: 6.33 ± 0.14 |
| O=C(O)C[C@H](NC(=O)c1ccc(-c2cccc(CO)c2)o1)C(=O)O [Compound 14, (5-(3-(Hydroxymethyl)phenyl)furan-2-carbonyl)-L-aspartic acid] | 1 (active (1)) | 79.6 ± 3.7% | 74.2 ± 11.8% | 5.71 | 4.81 | decrease in potency ([2]; relative to the 3-methyl (12), orthologue not stated): 3 fold |
| O=C(O)C[C@H](NC(=O)c1ccc(-c2ccc(O)cc2)o1)C(=O)O [Compound 15, (5-(4-Hydroxyphenyl)furan-2-carbonyl)-L-aspartic acid] | 1 (active (1)) | 74.8 ± 2.0% | 71.1 ± 4.2% | 6.82 | 6.13 |  |
| COc1ccccc1-c1ccc(C(=O)N[C@@H](CC(=O)O)C(=O)O)o1 [Compound 16, (5-(2-Methoxyphenyl)furan-2-carbonyl)-L-aspartic acid] | 1 (active (1)) | 78.1 ± 3.1% | 103.8 ± 7.9% | 6.14 | 5.29 |  |
| COc1ccc(-c2ccc(C(=O)N[C@@H](CC(=O)O)C(=O)O)o2)cc1 [Compound 17, (5-(4-Methoxyphenyl)furan-2-carbonyl)-L-aspartic acid] | 1 (active (1)) | 84.2 ± 1.8% | 85.3 ± 4.5% | 7.39 | 6.41 |  |
| O=C(O)C[C@H](NC(=O)c1ccc(-c2ccc(C(F)(F)F)cc2)o1)C(=O)O [Compound 18, (5-(4-(Trifluoromethyl)phenyl)furan-2-carbonyl)-L-aspartic acid] | 1 (active (1)) | 80.6 ± 4.6% | 81.0 ± 7.2% | 6.81 | 6.55 |  |
| N#Cc1ccc(-c2ccc(C(=O)N[C@@H](CC(=O)O)C(=O)O)o2)cc1 [Compound 19, (5-(4-Cyanophenyl)furan-2-carbonyl)-L-aspartic acid] | 1 (active (1)) | 76.0 ± 1.5% | 72.1 ± 3.2% | 6.79 | 6.39 |  |
| O=C(O)C[C@H](NC(=O)c1ccc(-c2ccc(OC(F)(F)F)cc2)o1)C(=O)O [Compound 20, (5-(4-(Trifluoromethoxy)phenyl)furan-2-carbonyl)-L-aspartic acid] | 1 (active (1)) | 69.7 ± 2.8% | 61.7 ± 3.6% | 6.72 | 6.99 | decrease in potency on mSUCNR1 [2, 4]: > 4 fold; increase in potency on hSUCNR1 [3, 4]: 2 fold |
| O=C(O)C[C@H](NC(=O)c1cccc(-c2ccc(OCC(F)(F)F)cc2)n1)C(=O)O [Compound 32, (6-(4-(2,2,2-Trifluoroethoxy)phenyl)picolinoyl)-L-aspartic acid] |  | 68.1 ± 2.5% | 88.7 ± 6.1% |  |  | EC50 [2]: 100 nM; EC50 [3]: 58.9 nM |
| CCCOc1ccc(-c2cccc(C(=O)N[C@@H](CC(=O)O)C(=O)O)n2)cc1 [Compound 33, (6-(4-Propoxyphenyl)picolinoyl)-L-aspartic acid] |  | 61.5 ± 3.8% | 66.4 ± 7.2% |  |  | EC50 [2]: 51.3 nM; EC50 [3]: 58.9 nM |
